Experimental data published in EP0552624B1, “Use of 9-cis retinoic acid, salts and esters thereof for the treatment of epithelial tumors” (F. HOFFMANN-LA ROCHE AG, priority 1992, dated 1993).

Legend:
[1] = tested on: SKv-l1, a transformed keratinocyte cell line containing human papilloma virus 16 (HPV 16); experiment: Proliferation assay by direct cell counting on HPV 16-containing transformed keratinocytes; type: cell-based; details: 48 h, 10^-6 M, incubated for 2 days, p < 0.001, read-out: inhibited proliferation (growth inhibition in % compared to controls)
Procedure: 9-cis retinoic acid was further investigated on its effect on other transformed cell lines. A proliferation assay was performed on a virus containing cell line. SKv-l1, a transformed keratinocyte cell line containing human papilloma virus 16 (HPV 16) was tested with regard to inhibition of proliferation by 9-cis retinoic acid in two experiments with four replicates. 5·10^4 cells/well were plated in Eagle's medium and incubated for 2 days. Direct cell counting with a hemocytometer was done before and after incubation with the retinoid in a concentration of 10^-6 M and in corresponding DMSO controls. Growth inhibition was expressed in % compared to controls.

[2] = tested on: SKv-e2 (tumorigenic); experiment: Tumor cell induced angiogenesis, in vitro preincubation of cells, SKv-e2; type: in vivo; details: SKv-e2 cells preincubated in vitro 48 hours with 10^-7 M, injected intradermally into untreated Balb/c mice; controls 34.7±3.7
Procedure: (§1) The angiogenesis assays have been, previously described (Sidky YA and Auerbach R. Lymphocyte induced angiogenesis: A quantitative and sensitive assay of the graft-vs-host reaction. J. exp Med 141: 1084-1100, 1975. Majewski S et al. Inhibition of tumour-induced angiogenesis by systemically administered protamine sulphate. Int J Cancer 33: 831-833, 1984). Two assays were used in testing 9-cis retinoic acid. In the first assay the retinoid was added in vitro to the cell line before being injected into mice. In the second assay the mice were injected intraperitoneally with the retinoid in vivo before the tumor cell line was injected intradermally.
(§2) Method: Cells of two tumorigenic cell lines, SKv-e2 and HeLa, and of a non-tumorigenic cell line, SKv-e1 were preincubated in vitro for 48 hours with 9-cis retinoic acid at a concentration of 10^-7 M followed by cell counting and washing in TC 199 medium. The cell concentration was adjusted to 2·10^5 viable cells per 0.1 ml of medium and injected intradermally into X-ray irradiated, but not retinoid-treated Balb/c mice. Controls were injected with tumor cells preincubated with DMSO. The angiogenic effect was determined according to the methods referred to above.

[3] = tested on: HeLa (tumorigenic); experiment: Tumor cell induced angiogenesis, in vitro preincubation of cells, HeLa; type: in vivo; details: HeLa cells preincubated in vitro 48 hours with 10^-7 M, injected intradermally into untreated Balb/c mice; controls 32.5±2.7
Procedure: as §1, §2

[4] = tested on: SKv-e1 (non-tumorigenic); experiment: Cell induced angiogenesis, in vitro preincubation of cells, SKv-e1; type: in vivo, Balb/c mice
Procedure: as §1, §2

[5] = tested on: HeLa (tumorigenic); experiment: Cell induced angiogenesis, in vivo pretreatment of mice, HeLa; set-up: species or system Balb/c mice; details: mice pretreated in vivo intraperitoneally before intradermal cell injection, control 28.3 ± 0.8
Procedure: as §1

[6] = tested on: SKv-12 (Tumorigenic); experiment: Cell induced angiogenesis, in vivo pretreatment of mice, SKv-12; set-up: species or system Balb/c mice; details: mice pretreated in vivo intraperitoneally before intradermal cell injection, control 30.3 ± 2.6
Procedure: as §1

[7] = tested on: SKv-e2 (tumorigenic); experiment: Cell induced angiogenesis, in vivo pretreatment of mice, SKv-e2; set-up: species or system Balb/c mice; details: mice pretreated in vivo intraperitoneally before intradermal cell injection, control 31.3 ± 2.7
Procedure: as §1

[8] = tested on: SKv-e1 (non-tumorigenic); experiment: Cell induced angiogenesis, in vivo pretreatment of mice, SKv-e1; set-up: species or system Balb/c mice
Procedure: as §1

[9] = Acute toxicity, single intraperitoneal dose; type: in vivo, Füllinsdorf albino mice; details: single i.p. dose in rape oil
Procedure: Acute Toxicity was determined in Füllinsdorf albino mice. 9-cis retinoic acid was suspended in rape oil and administered intraperitoneally in one single dose. The lethal dose (LD) of 10%, 50% and 90% of the mice was recorded 24 hours, 10 days and 20 days after the application of the single dose. For each group 10 mice were used.

CC(=CC=C/C(C)=C/C(=O)O)/C=C/C1=C(C)CCCC1(C)C (stereo in doubt) [9-cis retinoic acid, (E,Z,E,E)-3,7-dimethyl-9-[2,6,6-trimethyl-1-cyclohexen-1-yl]-2,4,6,8-nonatetraenoic acid]
inhibition at 1 µM [1]: 32.4%
Mean number of blood vessels [2]: 23.6±4.2 p < 0.001
Mean number of blood vessels [3]: 23.8±2.9 p < 0.001
Mean number of blood vessels ([4]; SKv-e1 cells preincubated in vitro 48 hours with 10^-7 M, injected intradermally into untreated Balb/c mice, controls 26.3±1.5): 25.6±2.2 p < 0.1
angiogenesis induced by the non-tumorigenic subline ([4]; in vitro preincubation of SKv-e1 cells, result in words): did not inhibit angiogenesis
Mean number of blood vessels [5]: 16.3 ± 1.8
Mean number of blood vessels [6]: 15.3 ± 1.0
Mean number of blood vessels [7]: 19.7 ± 0.6
Mean number of blood vessels ([8]; SKv-e1, mice pretreated in vivo intraperitoneally before intradermal cell injection, control 19.7 ± 3.7): 24.3 ± 5.6
anti-angiogenic effect with a non-tumorigenic cell line ([8]; mice treated in vivo, result in words): no anti-angiogenic effect
LD50 at 24 hours ([9]; Füllinsdorf albino, mouse, in vivo, ip, recorded 24 hours after): > 4000 mg/kg
LD50 at 10 days ([9]; Füllinsdorf albino, mouse, in vivo, ip, recorded 10 days after): 1400 mg/kg
LD50 at 20 days ([9]; Füllinsdorf albino, mouse, in vivo, ip, recorded 20 days after): 1400 mg/kg
LD 10% ([9]; recorded 24 hours after): > 4000 mg/kg
LD 90% ([9]; recorded 24 hours after): > 4000 mg/kg
LD 10% ([9]; recorded 10 days after): 1200 mg/kg
LD 90% ([9]; recorded 10 days after): 1800 mg/kg
LD 10% ([9]; recorded 20 days after): 1200 mg/kg
LD 90% ([9]; recorded 20 days after): 1800 mg/kg
